Data published in PubChem BioAssay (NCI).
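In this assay, cells in 96-well plates receive the compound at five concentrations for 48 hours. Endpoints are linearly interpolated between the surrounding concentrations. GI50 is the concentration that inhibits growth by half. TGI is the concentration that stops growth completely.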

Tests used:
Experiment in all cases: NCI anticancer screen, dose series, 48 h
RXF 393 renal = system: RXF 393 renal
SK-MEL-5 melanoma = system: SK-MEL-5 melanoma
CAKI-1 renal = system: CAKI-1 renal
MALME-3M melanoma = system: MALME-3M melanoma
OVCAR-8 ovarian = system: OVCAR-8 ovarian
NCI-H226 lung = system: NCI-H226 lung
RPMI-8226 leukemia = system: RPMI-8226 leukemia
SNB-75 CNS = system: SNB-75 CNS
SF-539 CNS = system: SF-539 CNS
HCT-15 colon = system: HCT-15 colon

Compound | GI50 (RXF 393 renal) [µM] | TGI (RXF 393 renal) [µM] | GI50 (SK-MEL-5 melanoma) [µM] | TGI (SK-MEL-5 melanoma) [µM] | GI50 (CAKI-1 renal) [µM] | TGI (CAKI-1 renal) [µM] | GI50 (MALME-3M melanoma) [µM] | TGI (MALME-3M melanoma) [µM] | GI50 (OVCAR-8 ovarian) [µM] | TGI (OVCAR-8 ovarian) [µM] | GI50 (NCI-H226 lung) [µM] | TGI (NCI-H226 lung) [µM] | GI50 (RPMI-8226 leukemia) [µM] | TGI (RPMI-8226 leukemia) [µM] | GI50 (SNB-75 CNS) [µM] | TGI (SNB-75 CNS) [µM] | GI50 (SF-539 CNS) [µM] | TGI (SF-539 CNS) [µM] | GI50 (HCT-15 colon) [µM] | TGI (HCT-15 colon) [µM]
COc1cccc(CC(C)=C(c2ccc(OCCN3CCCCC3)cc2)c2ccc(OCCN3CCCCC3)cc2)c1 | 0.916 | 2.88 | 2.23 | 4.17 | 2.3 | 4.29 | 1.84 | 3.81 | 2.3 | 4.81 | 2.33 | 5.12 | 1.62 | 4.41 | 1.77 | 3.83 | 2.11 | 4.11 | 0.992 | 2.99
CC1=C(SCCC(=O)OC(C[Se]C2=C(C)C(=O)c3ccccc3C2=O)C(=O)NCCCCCC(=O)OCc2ccccc2)C(=O)c2ccccc2C1=O (stereo not given) | 14.9 | 28.3 | 3.81 | 14.9 | 6.89 | 21.3 | 2.07 | 6.96 | 4.16 | 15 | 19.5 | 51.3 | 2.65 | 7.76 | 11.5 | 23.8 | 4.49 | 15.3 | 6.53 | 21.3
NC(=O)c1cc([N+](=O)[O-])c(Cl)c([N+](=O)[O-])c1Cl | 1.15 | 2.39 | 1.71 | 3.11 | 1.84 | 3.72 | 1.74 | 4.52 | 1.26 | 2.56 | 1.79 | 3.36 | 0.661 | 3.61 | 1.77 | 3.69 | 1.99 | 3.79 | 0.458 | 3.25
COC(=O)c1ccc(CN2C(=O)C(Cl)=C(Nc3cccc(Cl)c3C)C2=O)cc1 | 33.7 | > 100 | 1.08 | 3.94 | 26.5 | 71.6 | 2.03 | 9.82 | 37.2 | > 100 | 11 | > 100 | 3.76 | 48.2 | 14.8 | 95 | 23.1 | 58.7 | 28.4 | 78.9
O=C(O)c1ccc(C2=Cc3cc(Cl)ccc3OC2)cc1 |  | > 100 |  | > 100 |  | > 100 |  | > 100 |  | > 100 |  | > 100 |  | > 100 |  | > 100 |  | > 100 |  | > 100
COC(=O)C1Cc2c(n(C)c3ccccc23)C(CCC(=O)O)N1Cc1ccccc1 (stereo not given) |  | 89.7 |  | 79.5 |  | > 100 |  | > 100 |  | > 100 |  | 75.2 |  | 75.2 |  | 89.7 |  | 58 |  | > 100
O=C(O)[C@H](NS(=O)(=O)c1ccc(F)cc1)c1ccccc1 |  | > 100 |  | > 100 |  | > 100 |  | > 100 |  | > 100 |  | > 100 |  | > 100 |  | > 100 |  | > 100 |  | > 100
Cc1cc2c(cc1Cl)S/C(=C/C(=O)O)C(Nc1ccc3ncsc3c1)=NS2(=O)=O | 19.8 | > 100 | > 14.6 | > 24 | 22.1 | > 48.9 | > 35.3 | > 55.4 | 32.7 | > 100 | 25.3 | > 65.3 | 1.68 | 19.3 | > 100 | > 100 | 9.66 | > 34.6 | 27.4 | > 65.5
C=CCN(CCNS(=O)(=O)c1ccc(C)cc1)S(=O)(=O)c1ccc(C)cc1 |  | > 100 |  | 12.1 |  | > 100 |  | > 100 |  | > 100 |  | > 100 |  | 73.5 |  | > 100 |  | > 100 |  | > 100
COc1cc(/C=C/C(=O)/C=C/c2ccc(-n3ccnc3C)cc2)ccc1O | 1.66 | 3.18 | 3.25 | 11.9 | 3.06 | 10.9 | 4.63 | 30.5 | 3.52 | > 100 | 2.37 | 6.4 | 1.84 | 6.1 | 9.61 | > 100 | 2.19 | 5.53 | 2.6 | 8.47
